# Results from patent US8592581B2, “Trisubstituted purine derivatives” (Cyclacel Limited, priority 2007, dated 2013).
# Columns and labels:
# [1] = target: CYP1A (Homo sapiens, UniProt P05177); assay: CYP1A inhibition, human liver microsomes, ethoxyresorufin; format: in vitro ADME; conditions: human liver microsomes, probe ethoxyresorufin (0.5 μM), read-out: IC50 (μM) CYP1A
# Method: Six test compound concentrations (0.05, 0.25, 0.5, 2.5, 5, 25 μM in DMSO; final DMSO concentration=0.35%) were incubated with human liver microsomes (0.25 mg/mL) and NADPH (1 mM) in the presence of the probe substrate ethoxyresorufin (0.5 μM) for 5 min at 37° C. The selective CYP1A inhibitor, alpha-naphthoflavone, was screened alongside the test compounds as a positive control.
# For the CYP1A incubations, the reactions were terminated by the addition of methanol, and the formation of the metabolite, resorufin, was monitored by fluorescence (excitation wavelength=535 nm, emission wavelength=595 nm). For the CYP2C9, CYP2C19, CYP2D6, and CYP3A4 incubations, the reactions were terminated by the addition of methanol containing internal standard. The samples were then centrifuged, and the supernatants were combined, for the simultaneous analysis of 4-hydroxytolbutamide, 4-hydroxymephenyloin, dextrorphan, and 1-hydroxymidazolam plus internal standard by LC-MS/MS using generic LC-MS/MS conditions. Formic acid in deionised water (final concentration=0.1%) was added to the final sample prior to analysis.
# [2] = system: NCI-H460; assay: Alamar blue cytotoxicity assay NCI-H460; format: cell-based; conditions: Homo sapiens, 72 hours, read-out: cellular cytotoxicity IC50 NCI-H460
# Method: In order to determine the cellular potency of the compounds, the cytotoxicity of each compound was determined against a range of cell lines. Standard cytotoxicity methods were performed as follows: cells were seeded in 96-well plates appropriately for their doubling time (2-5000 cells per well) in RPMI or DMEM media containing 10% FCS and incubated overnight at 37° C., 5% CO2. The media was removed and 100 μl fresh media containing increasing concentrations of appropriate compound was added and the cells incubated for 72 hours at 37° C., 5% CO2. A 10% stock of alamar blue (Roche, Lewes, United Kingdom) was prepared in medium and 100 μl added to the cells which were incubated for 2 hours. Absorbance was measured on the Wallac Victor 2 1420 multi-label counter at 544-595 nm.
# Chain of CYP1A (P05177 2-516 limits assumed): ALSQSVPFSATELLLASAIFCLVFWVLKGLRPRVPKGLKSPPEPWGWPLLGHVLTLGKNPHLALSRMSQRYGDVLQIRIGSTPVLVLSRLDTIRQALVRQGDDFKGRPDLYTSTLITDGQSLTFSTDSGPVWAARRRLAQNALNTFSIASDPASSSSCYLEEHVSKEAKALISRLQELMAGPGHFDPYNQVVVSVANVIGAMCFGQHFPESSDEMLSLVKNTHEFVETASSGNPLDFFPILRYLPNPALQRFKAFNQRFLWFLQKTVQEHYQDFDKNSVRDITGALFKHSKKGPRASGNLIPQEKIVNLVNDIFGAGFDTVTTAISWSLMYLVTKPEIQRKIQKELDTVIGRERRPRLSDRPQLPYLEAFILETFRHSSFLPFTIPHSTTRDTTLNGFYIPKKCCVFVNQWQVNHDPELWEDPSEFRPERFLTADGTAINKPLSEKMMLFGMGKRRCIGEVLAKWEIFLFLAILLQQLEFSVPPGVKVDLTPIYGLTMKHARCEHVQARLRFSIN
smiles,measurement,setting,value
CC[C@H](Nc1nc(NCc2cnc(C)cc2C)c2ncn(C(C)C)c2n1)[C@@H](C)O [Compound [1]],IC50 at 5 min,[1],> 25 µM
same,IC50,[2],0.5 µM
